Test results: ChEMBL document CHEMBL6083252, “Synthesis and evaluation of novel tetrahydroisoquinoline-benzo[h]chromen-4-one conjugates as dual ABCB1/CYP1B1 inhibitors for overcoming MDR in cancer” (Bioorg Med Chem, 2024)
Calls of active or inactive are those of the source. No cut-off for these calls is given here.

What was measured:
[1] = Cytotoxicity against human DOX-SW620/AD300-1B1 cells assessed as inhibition of cell growth incubated for 48 hrs by CCK8 assay; type: functional, cell-based; details: DOX-SW620/AD300-1B1, 48 h
SW-620 = assay: Cytotoxicity against human SW620 cells assessed as inhibition of cell growth at 5 uM incubated for 48 hrs by CCK8 assay; type: functional; set-up: scale not given: the % may be the effect or the level left
SW620/AD300 [2] = assay: Cytotoxicity against human SW620/AD300 cells assessed as inhibition of cell growth incubated for 48 hrs by CCK8 assay; type: functional, cell-based; details: SW620/AD300, 48 h
SW620/AD300 [3] = assay: Reversal of multidrug resistance in human SW620/AD300 cells assessed as reversal fold by measuring ratio of doxorubicin IC50 to doxorubicin IC50 in presence of test compound at 5 uM; type: functional
SW620/AD300 [4] = assay: Reversal of multidrug resistance in human SW620/AD300 cells assessed as decrease in doxorubicin IC50 at 5 uM in presence of doxorubicin (reference value: 11.10 +/- 1.61 uM); type: functional, cell-based
SW620/AD300 [5] = assay: Cytotoxicity against human SW620/AD300 cells assessed as inhibition of cell growth at 5 uM incubated for 48 hrs by CCK8 assay; type: functional; set-up: scale not given: the % may be the effect or the level left
[6] = Induction of apoptosis in human MKN45-DDP-R cells assessed as necrotic cells at 6 uM incubated for 48 hrs by Annexin V-FITC/PI staining based flow cytometry analysis (reference value: 0.76%); type: functional, MKN45-DDP-R (Cisplatin-resistant MKN45 cells)
[7] = Induction of apoptosis in human MKN45-DDP-R cells assessed as early apoptotic cells at 6 uM incubated for 48 hrs by Annexin V-FITC/PI staining based flow cytometry analysis (reference value: 3.70%); type: functional, MKN45-DDP-R (Cisplatin-resistant MKN45 cells)
[8] = Induction of apoptosis in human MKN45-DDP-R cells assessed as early apoptotic cells at 3 uM incubated for 48 hrs by Annexin V-FITC/PI staining based flow cytometry analysis (reference value: 3.70%); type: functional, MKN45-DDP-R (Cisplatin-resistant MKN45 cells)
[9] = system: MKN45-DDP-R (Cisplatin-resistant MKN45 cells); assay: Inhibition of colony formation in human MKN45-DDP-R cells assessed as decrease in colony size incubated for 48 hrs followed by media replacement and cultured for 12 days by crystal violet staining based assay; type: functional, cell-based; details: dose 1-3 µM
[10] = system: MKN45-DDP-R (Cisplatin-resistant MKN45 cells); assay: Effect on lipid peroxidation level in human MKN45-DDP-R cells at 10 uM incubated for 24 hrs by BODIPY 581/591 C11 probe based flow cytometry assay; type: functional, cell-based
[11] = system: MKN45-DDP-R (Cisplatin-resistant MKN45 cells); assay: Inhibition of cell migration in human MKN45-DDP-R cells at over 1 uM incubated for 24 hrs by scratch wound healing based inverted microscopic analysis; type: functional
[12] = Induction of apoptosis in human MKN45-DDP-R cells assessed as late apoptotic cells at 6 uM incubated for 48 hrs by Annexin V-FITC/PI staining based flow cytometry analysis (reference value: 0.89%); type: functional, MKN45-DDP-R (Cisplatin-resistant MKN45 cells)
[13] = Cytotoxicity against human MKN45-DDP-R cells assessed as inhibition of cell growth incubated for 48 hrs by CCK8 assay; type: functional, cell-based; details: MKN45-DDP-R (Cisplatin-resistant MKN45 cells)
SW620/AD300 [14] = assay: Effect on P-gp protein expression in human SW620/AD300 cells at 5 uM incubated for 24 hrs by immunofluorescence assay; type: functional, cell-based
[15] = Induction of apoptosis in human MKN45-DDP-R cells assessed as viable cells at 6 uM incubated for 48 hrs by Annexin V-FITC/PI staining based flow cytometry analysis (reference value: 94.7%); type: functional; details: MKN45-DDP-R (Cisplatin-resistant MKN45 cells), read-out: Activity
[16] = Induction of apoptosis in human MKN45-DDP-R cells assessed as necrotic cells at 3 uM incubated for 48 hrs by Annexin V-FITC/PI staining based flow cytometry analysis (reference value: 0.76%); type: functional, MKN45-DDP-R (Cisplatin-resistant MKN45 cells)
[17] = system: MKN45-DDP-R (Cisplatin-resistant MKN45 cells); assay: Inhibition of colony formation in human MKN45-DDP-R cells assessed as decrease in colony number incubated for 48 hrs followed by media replacement and cultured for 12 days by crystal violet staining based assay; type: functional, cell-based; details: dose 1-3 µM
[18] = Induction of apoptosis in human MKN45-DDP-R cells assessed as late apoptotic cells at 3 uM incubated for 48 hrs by Annexin V-FITC/PI staining based flow cytometry analysis (reference value: 0.89%); type: functional, MKN45-DDP-R (Cisplatin-resistant MKN45 cells)
[19] = Induction of apoptosis in human MKN45-DDP-R cells assessed as viable cells at 3 uM incubated for 48 hrs by Annexin V-FITC/PI staining based flow cytometry analysis (reference value: 94.7%); type: functional; details: MKN45-DDP-R (Cisplatin-resistant MKN45 cells), read-out: Activity
SW620/AD300 [20] = assay: Effect on P-gp protein expression in human SW620/AD300 cells at 5 to 30 uM by Western blotting assay; type: functional, cell-based; details: dose 5-30 µM
[21] = system: MKN45-DDP-R (Cisplatin-resistant MKN45 cells); assay: Upregulation of PUMA expression level in human MKN45-DDP-R cells at 6 to 12 uM incubated for 48 hrs by Western blotting assay; type: functional, cell-based; details: dose 6-12 µM
[22] = Reversal of docetaxel resistance in human DU-145 cells transfected with CYP1B1 assessed as decrease in docetaxel IC50 at 5 uM (reference value: 23.5 +/- 3.04 nM); type: functional, cell-based
[23] = Reversal of drug resistance in human DOX-SW620/AD300-1B1 cells assessed as decrease in doxorubicin IC50 at 5 uM after 48 hrs in presence of doxorubicin by CCK8 assay (reference value: 64.5 +/- 30 uM); type: functional, cell-based; details: DOX-SW620/AD300-1B1, 48 h
Cytochrome P450 1B1 = target: T1, Cytochrome P450 1B1 (Homo sapiens, UniProt Q16678); assay: Inhibition of recombinant human CYP1B1 at 0.5 uM using 7-Ethoxyresorufin as substrate incubated for 35 mins in presence of NADPH by microplate reader assay; type: ADME; details: recombinant enzyme
T1 sequence (Q16678 whole entry): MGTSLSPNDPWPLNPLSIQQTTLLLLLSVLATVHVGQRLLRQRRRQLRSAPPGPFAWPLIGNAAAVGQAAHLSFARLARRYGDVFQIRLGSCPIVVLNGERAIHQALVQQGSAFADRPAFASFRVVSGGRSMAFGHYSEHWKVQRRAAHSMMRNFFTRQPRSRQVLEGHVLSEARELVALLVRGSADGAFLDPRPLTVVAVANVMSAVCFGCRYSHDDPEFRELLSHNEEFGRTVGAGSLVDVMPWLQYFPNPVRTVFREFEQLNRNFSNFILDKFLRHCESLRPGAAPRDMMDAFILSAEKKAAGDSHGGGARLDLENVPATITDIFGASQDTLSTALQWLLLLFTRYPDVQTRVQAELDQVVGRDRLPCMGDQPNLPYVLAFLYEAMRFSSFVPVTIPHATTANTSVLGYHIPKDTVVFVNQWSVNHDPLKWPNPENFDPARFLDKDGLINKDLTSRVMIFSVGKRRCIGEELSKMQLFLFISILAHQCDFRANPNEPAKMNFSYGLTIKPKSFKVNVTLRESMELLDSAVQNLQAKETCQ

DU-145 = assay: Cytotoxicity against human DU-145 cells assessed as inhibition of cell growth at 5 uM incubated for 48 hrs by CCK8 assay; type: functional, cell-based
[24] = target: ATP-dependent translocase ABCB1 (Homo sapiens, UniProt P08183); assay: Inhibition of P-gp in human SW620/AD300 cells assessed as increase in intracellular Rh123 accumulation at 5 uM incubated for 4 hrs by flow cytometry analysis; type: cell-based; details: sw620/ad300, 4 h
SW620/AD300 [25] = assay: Downregulation of P-gp expression in human SW620/AD300 cells at 10 uM incubated for 24 hrs by immunofluorescence assay; type: functional, cell-based
SW620/AD300 [26] = assay: Downregulation of P-gp expression in human SW620/AD300 cells upto 30 uM incubated for 24 hrs by Western blotting assay; type: functional, cell-based
[27] = system: MKN45-DDP-R (Cisplatin-resistant MKN45 cells); assay: Reversal of cisplatin resistance in human MKN45-DDP-R cells expressing CYP1B1 at 5 uM in presence of cisplatin; type: functional, cell-based

Chain of ATP-dependent translocase ABCB1 (P08183 whole entry): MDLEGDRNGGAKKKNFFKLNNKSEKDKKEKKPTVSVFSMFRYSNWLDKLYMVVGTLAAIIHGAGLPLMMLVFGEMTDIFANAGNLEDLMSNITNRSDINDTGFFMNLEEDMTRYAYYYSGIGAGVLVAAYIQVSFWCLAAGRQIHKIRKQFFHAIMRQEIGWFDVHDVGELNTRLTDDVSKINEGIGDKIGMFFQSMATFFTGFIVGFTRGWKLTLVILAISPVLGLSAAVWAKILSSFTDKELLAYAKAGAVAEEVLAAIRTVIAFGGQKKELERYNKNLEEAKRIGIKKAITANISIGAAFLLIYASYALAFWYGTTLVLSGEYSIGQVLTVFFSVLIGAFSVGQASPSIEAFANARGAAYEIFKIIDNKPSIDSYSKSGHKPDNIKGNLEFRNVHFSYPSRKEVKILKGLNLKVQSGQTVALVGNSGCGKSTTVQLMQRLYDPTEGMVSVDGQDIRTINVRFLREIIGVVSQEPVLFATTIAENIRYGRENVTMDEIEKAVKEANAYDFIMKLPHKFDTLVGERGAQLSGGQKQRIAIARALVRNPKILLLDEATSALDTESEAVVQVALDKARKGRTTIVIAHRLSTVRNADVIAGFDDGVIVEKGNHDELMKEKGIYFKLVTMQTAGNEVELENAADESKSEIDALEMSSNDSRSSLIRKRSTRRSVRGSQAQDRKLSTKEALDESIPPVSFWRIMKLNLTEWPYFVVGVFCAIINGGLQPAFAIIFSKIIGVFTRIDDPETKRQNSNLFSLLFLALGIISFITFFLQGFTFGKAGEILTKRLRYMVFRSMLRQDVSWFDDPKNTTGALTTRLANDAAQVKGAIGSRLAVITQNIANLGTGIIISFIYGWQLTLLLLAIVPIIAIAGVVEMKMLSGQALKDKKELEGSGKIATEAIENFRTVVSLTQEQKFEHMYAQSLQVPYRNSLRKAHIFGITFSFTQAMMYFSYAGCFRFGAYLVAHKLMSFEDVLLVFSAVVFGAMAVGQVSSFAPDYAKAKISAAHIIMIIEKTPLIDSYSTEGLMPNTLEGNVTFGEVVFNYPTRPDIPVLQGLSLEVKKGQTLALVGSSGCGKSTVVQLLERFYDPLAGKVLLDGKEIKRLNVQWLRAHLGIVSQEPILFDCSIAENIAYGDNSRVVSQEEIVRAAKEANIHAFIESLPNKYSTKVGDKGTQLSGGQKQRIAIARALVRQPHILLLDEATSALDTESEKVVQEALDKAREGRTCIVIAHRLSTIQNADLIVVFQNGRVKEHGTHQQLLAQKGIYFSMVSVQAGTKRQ

IC50 (SW620/AD300 [4]) [nM]	IC50 [22] [nM]	SMILES	Activity (SW-620) [%]	Ratio IC50 (SW620/AD300 [3])	Activity (SW620/AD300 [5]) [%]	Activity (DU-145)	other results
		COc1cccc2c1C(=O)c1c(O)c3c(c(O)c1C2=O)C[C@@](O)(C(=O)CO)C[C@@H]3O[C@H]1C[C@H](N)[C@H](O)[C@H](C)O1 [DOXORUBICIN]	0.29				IC50 [1]: 64500 nM; IC50 (SW620/AD300 [2]): 11100 nM
840		COc1cc2c(cc1OC)CN(C(=O)C1CCN(C(=O)c3cc(=O)c4ccc5ccccc5c4o3)CC1)CC2	26.93	13.2	14.46		
5250		COc1cc2c(cc1OC)CN(CCNC(=O)c1cc(=O)c3ccc4ccccc4c3o1)CC2	51.29	2.1	55.04		Activity [6]: 0.73%; Activity [7]: 34.9%; Activity [8]: 15%; inhibition [9]: Dose-dependent-effect; Activity [10]: inactive; inhibition [11]: Active; Activity [12]: 6.41%; IC50 [13]: 6580 nM; Activity (SW620/AD300 [14]): inactive; IC50 (SW620/AD300 [2]): 9100 nM; viability at 6 µM [15]: 58%; Activity [16]: 0.58%; inhibition [17]: Dose-dependent-effect; Activity [18]: 3.37%; viability at 3 µM [19]: 81.1%; Activity (SW620/AD300 [20]): inactive; Activity [21]: Active
280	8.7	COc1ccc(C(=O)Nc2ccccc2C(=O)Nc2ccc(CCN3CCc4cc(OC)c(OC)cc4C3)cc2)cc1OC	8.91	39.6	6.53	Active; Lower Cytotoxicity Than Anf And Wk-X-38	IC50 [23]: 40000 nM; inhibition (INH) (Cytochrome P450 1B1): Active; inhibition (INH) [24]: Active
660		COc1cc2c(cc1OC)CN(CCN1CCN(C(=O)c3cc(=O)c4ccc5ccccc5c4o3)CC1)CC2	11.06	16.8	15.35		
470		COc1cc2c(cc1OC)CN(CCNC(=O)c1cc(=O)c3cc(OC)c4ccccc4c3o1)CC2	28.94	23.6	34.64		
250	5.69	COc1cc2c(cc1OC)CN(CCc1ccc(NC(=O)c3cc(=O)c4cc(OC)c5ccccc5c4o3)cc1)CC2	32.77	44.4	17.28	Active; Lower Cytotoxicity Than Anf And Wk-X-36	Activity (SW620/AD300 [25]): inactive; IC50 [23]: 4700 nM; Activity (SW620/AD300 [26]): inactive; Activity [27]: Active
320	9.6	COc1cc2c(cc1OC)CN(CCc1ccc(NC(=O)c3ccccc3NC(=O)c3cc(=O)c4ccc5ccccc5c4o3)cc1)CC2	13.34	34.7	7.13	Active; Lower Cytotoxicity Than Anf And Wk-X-34	Activity (SW620/AD300 [25]): inactive; Activity (SW620/AD300 [26]): inactive
7480	11.4	COc1cc2c(cc1OC)CN(C(=O)c1cc(=O)c3cc(OC)c4ccccc4c3o1)CC2	4.62	1.4	3.49	Active; Lower Cytotoxicity Than Anf And Wk-X-35	
6500		COc1cc2c(cc1OC)CN(C(=O)c1cc(=O)c3ccc4ccccc4c3o1)CC2	8.82	1.7	15.57		
2290	3.41	COc1cc2c(cc1OC)CN(C(=O)Cn1cc(-c3ccc(-c4cc(=O)c5ccc6ccccc6c5o4)cc3)nn1)CC2	22.19	4.8	26.85	Active; Lower Cytotoxicity Than Anf And Wk-X-37	Activity [27]: Active
2200		COc1cc2c(cc1OC)CN(C(=O)C1CCN(C(=O)c3cc(=O)c4cc(OC)c5ccccc5c4o3)CC1)CC2	13.03	5	4.05		
400		COc1cc2c(cc1OC)CN(CCc1ccc(NC(=O)c3cc(=O)c4ccc5ccccc5c4o3)cc1)CC2	13.57	27.8	20.08		
	8.2	O=c1cc(-c2ccccc2)oc2c1ccc1ccccc12 [ALPHA-NAPHTHOFLAVONE]				Active; Lower Cytotoxicity Than Anf And Wk-X-39	IC50 [23]: 2400 nM; inhibition (INH) (Cytochrome P450 1B1): Active
